The values that follow come from US20250338846A1, “COMPOSITIONS HAVING PESTICIDAL UTILITY AND PROCESSES RELATED THERETO” (CORTEVA AGRISCIENCE, LLC, priority 2022, published 2025).

Assay type in all cases: in vivo
Experiment [1] concerns Cotton Aphid (Aphis gossypii, APHIGO). The experiment is described as follows: Bioassay 7: Cotton Aphid, foliar spray on infested cotton seedlings, live aphids counted three days after treatment. Here is the method: where X=No. of live larvae on solvent check and Y=No. of live larvae on treated diet. In Table B6 the “Expected % Control” was calculated using the method described in Colby S. R., Weeds, 1967, 15, 20-22. Bioassay 7: Cotton Aphid (Aphis gossypii, APHIGO) (“CA”).
Stock solutions of Formula One and one or more of the active ingredients were prepared at concentrations of 1 mg/mL using a 1:1 mixture of acetone: methanol as a diluent. The stock solutions were prepared with Formula One as well as for each of the active ingredients individually. Test solutions were prepared from the stock solutions. Test solutions were prepared containing Formula One, the individual active ingredients, and mixtures of Formula One with each of the active ingredients. The test solutions for Formula One and the individual active ingredients were prepared by adding 1.5 mL of stock solution to a 30 mL glass vial, then adding 1.5 mL of 1:1 acetone: methanol solvent, followed by the addition of 27 mL water with 0.025% Tween® 20 to create a […]. Each test solution was serially diluted to create desired doses of test solutions ranging from 0.000001 to 0.0025% (w/v). The test solutions were tested against CA using the following procedure: cotton seedlings were grown in 3-inch pots with one true leaf (2-5 cm in diameter) were used as test substrate. The seedlings were infested with 20-50 CA (wingless adult and nymph stages) one day prior to chemical application. Four pots with individual seedlings were used for each treatment. A hand-held aspirator-type sprayer was used for spraying a solution to both sides of […] leaves until runoff. Reference plants (solvent check) were sprayed with the diluent only (0.025% Tween® 20 and 10% acetone:methanol (1:1) in water). Treated plants were held in a holding room for three days at approximately 25° C. and ambient relative humidity (RH about 20% to about 45%) prior to grading. Evaluation was conducted by counting the number of live aphids per plant under a microscope three days after treatment. Percent control was measured using Abbott's correction formula (W. S. Abbott, J. Econ. Entomol. 18 (1925), pp. 265-267) as follows:
(§1) where X=No. of live aphids on solvent check plants and Y=No. of live aphids on treated plants. In Table B1 the “Expected % Control” was calculated using the method described in Colby S. R., Weeds, 1967, 15, 20-22. Bioassay 8: Sweet Potato Whitefly (Bemisia tabaci, BEMITA) (“SPW”).

Experiment [2] relates to Sweet Potato Whitefly (Bemisia tabaci, BEMITA). The experiment is described as follows: Bioassay 8: Sweet Potato Whitefly, spray on cotton seedlings at crawler emergence, nymphs counted 7-9 days after treatment. The following applies: AI alone 0.1 (10^-5) Wt %. As to the method: as §1
(§2) Stock solutions were prepared with Formula One as well as for each of the active ingredients individually. Test solutions were prepared from the stock solutions. Test solutions were prepared containing Formula One, the individual active ingredients, and mixtures of Formula One with each of the active ingredients. The test solutions for Formula One and the individual active ingredients were prepared by adding 500 μL of stock solution to a 25 mL glass vial, then adding 500 μL of acetone, followed by the addition of 9 mL water with 0.025% Tween®) 20 to create a 0.001% (w/v) solution. The test solutions containing mixtures of Formula One and the individual active ingredients were prepared by adding 500 μL of the active ingredient stock solution to a 25 mL glass vial, followed by 500 μL of the Formula One stock solution, then by the addition of 9 mL water with 0.025% Tween®) 20 to create a test solution containing 0.001% (w/v) Formula One and 0.001% (w/v) of the active ingredient. Each test solution was serially diluted to create desired doses of test solutions (0.001% (w/v), 0.0001% (w/v), 0.00001% (w/v), 0.000001% (w/v), 0.0000001% (w/v), 0.000008% (w/v) and 0.00000001% (w/v)).
(§3) The test solutions were tested against SPW using the following procedure: Cotton seedlings grown in 3-inch pots, pruned so that only one true leaf remained, were used as test substrate. Adult B. tabaci were allowed to colonize the cotton plants and lay eggs for 24 hours after which all adults were removed from the plants using compressed air. Plants were monitored for egg development and, when crawler emergence was underway (>25% emergence based on visual examination using a microscope), the plants were sprayed using the test solutions and methods described above for green peach aphids (GPA). Treated plants were held in a holding room at approximately 25° C. and ambient relative humidity (RH) prior to grading. Evaluation was conducted by counting the number of developed 2-3 instar nymphs per plant under a microscope 7-9 days after treatment. Percent control was measured using Abbott's correction formula (W. S. Abbott, J. Econ. Entomol. 18 (1925), pp. 265-267) as follows:
(§4) where X=No. of live nymphs on solvent check plants and Y=No. of live nymphs on treated plants. In Table B2 the “Expected % Control” was calculated using the method described in Colby S. R., Weeds, 1967, 15, 20-22. Bioassay 9: Diamondback Moth (Plutella xylostella, PLUTMA) (DBM).

Experiment [3] deals with Diamondback Moth (Plutella xylostella, PLUTMA). The experiment is described as follows: Bioassay 9: Diamondback Moth, leaves of track-sprayed cabbage plants, mortality and feeding damage scored. As to the method: as §4
(§5) Stock solutions were prepared with Formula One as well as for each of the active ingredients individually. Test solutions were prepared from the stock solutions. Test solutions were prepared containing Formula One, the individual active ingredients, and mixtures of Formula One with each of the active ingredients. The test solution for Formula One was prepared by adding 500 μL of the stock solution to a 25 mL glass vial, then adding 500 μL of a 9:1 mixture of acetone: water. The individual active ingredients were prepared by adding 500 μL of stock solution to a 25 mL glass vial, then adding 500 μL of a 9:1 mixture of acetone: water. The test solutions containing mixtures of Formula One and the individual active ingredients were prepared by adding 500 μL of the active ingredient stock solution to a 25 mL glass vial, followed by 500 μL of the Formula One stock solution, creating a test solution containing 4000 ppm Formula One and 0.4% (w/v) of the active ingredient. Each test solution was serially diluted to create desired doses of test solutions (0.4% (w/v), 0.04% (w/v), 0.004% (w/v), 0.0004% (w/v), 0.00004% (w/v), and 0.000004% (w/v)). In test solutions containing mixtures of Formula One and the active ingredients, the active ingredients were diluted as described above, but the Concentration of Formula One was held constant (0.4% (w/v)). The highest dose test solution (0.4% (w/v)) was discarded, leaving 5 test solution concentrations used in the test.
Cabbage seedlings, grown in 3-inch pots with 2-3 small (3-5 centimeter (cm)) true leaves, were used as test substrate. Cabbage plants were sprayed with desired concentrations of Formula One and active ingredients or their mixtures using a track Sprayer. Reference plants (solvent check) were sprayed with diluent only (0.025% Tween® 20 and 10% acetone:methanol (1:1) in water). The sprayed cabbage plants were allowed to dry for 1 hour, after which leaves from each treatment were placed in a cell of a plastic tray. One leaf per cell and 8 replicates for each cell. The tested doses ranged between 0.000001% (w/v) to 0.0002% (w/v). One 2nd instar DBM larvae were placed in each cell of the tray and allowed to feed on the cabbage foliage for […] after which the mortality and feeding damage were scored. Test trays were held at approximately 26° C. and ambient relative humidity (RH) prior to grading. The number of live larvae were recorded from each cell and percent control was measured using Abbott's correction formula (W. S. Abbott, J. Econ. Entomol. 18 (1925), pp. 265-267) as follows:
where X=No. of live larvae on solvent check and Y=No. of live larvae on treated diet. In Table B6 the “Expected % Control” was calculated using the method described in Colby S. R., Weeds, 1967, 15, 20-22.

In experiment [4] the test system is Sweet Potato Whitefly (Bemisia tabaci, BEMITA). The experiment can be described thus: Bioassay 2: Sweet Potato Whitefly, spray on cotton seedlings at crawler emergence, nymphs counted 7-9 days after treatment. As to the method:
as §2, with “(w/v),” for “(w/v), 0.000008% (w/v)”
as §3
where X=No. of live nymphs on solvent check plants and Y=No. of live nymphs on treated plants. In Table B2 the “Expected % Control” was calculated using the method described in Colby S. R., Weeds, 1967, 15, 20-22. Bioassay 3: Western Flower Thrips (Frankliniella occidentalis, FRANOC) (“WFT”).

Experiment [5] concerns Diamondback Moth (Plutella xylostella, PLUTMA). The experiment is described as follows: Bioassay 6: Diamondback Moth, artificial lepidopteran diet, live larvae after 5 days. The following applies: DBM; AI alone 0.04 % w/v. Here is the method: where X=No. of live nymphs on solvent check and Y=No. of live nymphs on treated bean segments. In Table B5 the “Expected % Control” was calculated using the method described in Colby S. R., Weeds, 1967, 15, 20-22. Bioassay 6: Beet Armyworm (Spodoptera exigua, LAPHEG) (BAW), and Diamondback Moth (Plutella xylostella, PLUTMA) (DBM).
as §5
The test solutions were tested against BAW and DBM using the following procedure: An artificial lepidopteran diet (Multispecies Lepidopteran Diet, Southland Products) was distributed in 128-cell bioassay trays (Frontier Agricultural Sciences™). 50 μL of test solution was pipetted into a cell in the bioassay tray. (The test solution doses of 0.04% (w/v), 0.004% (w/v), 0.0004% (w/v), 0.00004% (w/v), and 0.000004% (w/v) translated to concentrations of 5, 0.5, 0.05, 0.005, and 0.0005 ug/cm^2 on the diet, respectively.) A reference treatment (solvent check) was treated with the diluent only. […] After 5 days, the number of live larvae were recorded from each cell and percent control was measured using Abbott's correction formula (W. S. Abbott, J. Econ. Entomol. 18 (1925), pp. 265-267) as follows:
where X=No. of live larvae on solvent check and Y=No. of live larvae on treated diet. In Table B6 the “Expected % Control” was calculated using the method described in Colby S. R., Weeds, 1967, 15, 20-22. […]

Regarding Tetraniliprole, the entries for the “Average % Control A1” value in experiment [1] (AI alone 0.1 (10^-5) Wt %), in experiment [1] (AI alone 0.8 (10^-5) Wt %) and in experiment [2] were 44.54%, 7.23% and 40.00%, respectively. Further, the “Average % Control AI” value in experiment [3] (AI alone 0.1 (10^-5) Wt %) was 16.67%; in experiment [3] (AI alone 1 (10^-5) Wt %), 50.00%; in experiment [3] (AI alone 5 (10^-5) Wt %), 41.67%.

As for `Cc1cc(C)c(C2=C(OC(=O)CC(C)(C)C)C3(CCCC3)OC2=O)c(C)c1` [Spiromesifen], the “Average % Control AI” value in experiment [4] (AI alone 0.1 (10-5) % w/v) and in experiment [5] was 0% each time.

Take `CC1(C)[C@H](C(=O)O[C@H](C#N)c2cccc(Oc3ccccc3)c2)[C@@H]1C=C(Br)Br` [Deltamethrin]: the “Average % Control A1” value in experiment [1] (AI alone 0.78 (10^-5) Wt %) was 26.73%; in experiment [1] (AI alone 2.5 (10^-5) Wt %) it was 34.23%; in experiment [1] (AI alone 10 (10^-5) Wt %), 34.23%; in experiment [2], 35.94%. The results for the “Average % Control AI” value in experiment [3] (AI alone 5 (10^-5) Wt %), in experiment [3] (AI alone 10 (10^-5) Wt %) and in experiment [3] (AI alone 20 (10^-5) Wt %) were 30.43%, 15.22% and 30.43%, respectively.

As for `C[C@]1(COC(=O)C2CC2)[C@@H]2C[C@H](O)[C@@]3(C)Oc4cc(-c5cccnc5)oc(=O)c4[C@H](O)[C@@H]3[C@@]2(C)CC[C@@H]1OC(=O)C1CC1` [Afidopyropen], the results for the “Average % Control AI” value in experiment [4] (AI alone 0.1 (10-5) % w/v), in experiment [4] (AI alone 1 (10-5) % w/v) and in experiment [5] were 0%, 0% and 25%, respectively.
